The text below walks through data of article PMC5661649, “G-protein-coupled receptors mediate 14-3-3 signal transduction” (Signal Transduction and Targeted Therapy, 2016).

Like-named read-outs stand apart in the source and are kept apart here.

Assay [1] deals with T1, α1AR (β-arrestin signaling) (Homo sapiens, UniProt P35348).
T1 construct: Full-length complementary DNAs of human GPCRs without stop codons were subcloned in frame with the tobacco etch virus (TEV) protease vector; expressed in transfected cells
T1 sequence (P35348 1-466): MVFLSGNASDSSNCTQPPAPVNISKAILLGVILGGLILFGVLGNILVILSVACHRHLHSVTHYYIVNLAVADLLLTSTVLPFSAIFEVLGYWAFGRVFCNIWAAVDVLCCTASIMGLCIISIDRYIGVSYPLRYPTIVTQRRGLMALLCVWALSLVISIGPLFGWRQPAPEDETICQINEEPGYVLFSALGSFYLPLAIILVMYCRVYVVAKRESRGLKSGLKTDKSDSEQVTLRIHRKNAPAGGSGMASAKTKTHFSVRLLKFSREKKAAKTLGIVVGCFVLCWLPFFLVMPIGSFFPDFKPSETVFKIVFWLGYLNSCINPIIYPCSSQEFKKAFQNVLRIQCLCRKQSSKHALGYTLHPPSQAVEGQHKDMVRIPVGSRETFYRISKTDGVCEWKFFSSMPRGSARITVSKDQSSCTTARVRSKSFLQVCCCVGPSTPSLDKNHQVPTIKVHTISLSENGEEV
The assay is described as follows: α1AR/β-arrestin-2 LinkLight assay. It counts as cell-based. The note with it: α1A-TEV/β-arrestin-pLuc cells, Figure 3f; for EC50: adrenergic agonist panel, read-out: potency (rank order) in β-arrestin signaling. The procedure: (§1) Multiple stable clones were selected for evaluation.
(§2) Cells were cultured overnight.
The GPCR/β-arrestin-2 LinkLight cells were seeded in white 384-well plates.

The test system of a further assay is α1AR/14-3-3 interaction. In words: Kinase inhibitor response in α1AR/14-3-3ε LinkLight cells. The format is cell-based, human. The note with it: preincubation of α1AR/14-3-3 cells; Figure 3c.
The subject of a further assay is Raf-1/14-3-3 interaction. The assay is described as follows: Kinase inhibition of FBS-stimulated Raf-1/14-3-3 interaction in U2OS cells. Conditions: 7.5% FBS stimulation, Figure 4d. The format is cell-based. The protocol:
as §2
The LinkLight cells were cultured in a white 384-well plate overnight. The culture medium was then replaced with serum-free DMEM.

Assay [2] concerns Raf-1/14-3-3ε interaction. In words: GPCR agonist-induced Raf-1/14-3-3ε interaction LinkLight assay in U2OS cells. The format is cell-based. Conditions: U2OS stably co-expressing Raf-1-TEV and 14-3-3ε-pLuc, endogenous GPCRs; Figure 4a. The source says: (§3) Full-length complementary DNAs of human GPCRs without stop codons were subcloned in frame with the tobacco etch virus (TEV) protease vector as previously described.[20],[21] The β-arrestin-2-permuted luciferase (β-arr-2-pLuc) expression plasmid was also previously described.[20],[21] 14-3-3ɛ and 14-3-3ζ full-length complementary DNAs without stop codons were used to replace β-arrestin-2 in the β-arr-2-pLuc for construction of the 14-3-3ɛ-pLuc and 14-3-3ζ-pLuc expression plasmids. […] Multiple stable clones were selected for evaluation.
The LinkLight cells stably expressing both GPCR-TEV and 14-3-3ε-pLuc were seeded into a 384-well white plate (Becton Dickinson, Franklin Lakes, NJ, USA) at 20 000 cells per well with 30 μl of regular medium. Cells were cultured overnight. The following day, the culture medium was replaced with 15 μl of serum-free DMEM, followed by the addition of 5 μl of compounds/drugs. Agonists were added as serial dilutions in serum-free DMEM from 10 mM dimethylsulfoxide stocks. For antagonist inhibition assays, the medium was replaced with 10 μl of serum-free DMEM. […] An equal volume of Bright-Glo (Promega, Madison, WI, USA), One-Glo (Promega), BriteLite (PerkinElmer, Billerica, MA, USA) or NeoLite (PerkinElmer) luciferase detection reagent was added for a 5-min incubation. The luminescence signals were determined using a luminescence plate reader (EnSpire or TopCount). Alternatively, after compound incubation, the culture medium was replaced with 10 μl of luciferase detection reagent, and luminescence signals were recorded.
The Raf-1/14-3-3ε LinkLight cells were seeded in white 384-well plates.

Assay [3] addresses T2, muscarinic cholinergic receptor 5 (CHRM5) (Homo sapiens, UniProt P08912).
T2 construct: Full-length complementary DNAs of human GPCRs without stop codons were subcloned in frame with the tobacco etch virus (TEV) protease vector; expressed in transfected cells
T2 sequence (P08912 1-532): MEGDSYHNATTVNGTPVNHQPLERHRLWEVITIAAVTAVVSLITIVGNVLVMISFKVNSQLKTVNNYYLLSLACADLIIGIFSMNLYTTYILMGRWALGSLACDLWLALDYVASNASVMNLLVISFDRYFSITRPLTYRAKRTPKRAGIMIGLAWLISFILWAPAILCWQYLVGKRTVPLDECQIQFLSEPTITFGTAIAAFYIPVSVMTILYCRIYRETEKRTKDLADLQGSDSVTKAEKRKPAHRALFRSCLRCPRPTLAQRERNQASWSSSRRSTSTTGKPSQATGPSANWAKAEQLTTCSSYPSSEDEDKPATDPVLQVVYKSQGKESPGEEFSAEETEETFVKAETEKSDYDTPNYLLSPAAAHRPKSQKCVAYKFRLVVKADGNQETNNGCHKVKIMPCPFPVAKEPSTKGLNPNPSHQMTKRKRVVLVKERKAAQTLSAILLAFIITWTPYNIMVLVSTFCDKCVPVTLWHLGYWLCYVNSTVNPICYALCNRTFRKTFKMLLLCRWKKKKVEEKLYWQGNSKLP
In words: CHRM5/14-3-3ε LinkLight assay, agonist mode. The note with it: stable CHRM5/14-3-3 LinkLight cells; Figure 2e. It counts as cell-based.
Text: as §3
(§4) The LinkLight cells stably expressing both GPCR-TEV and 14-3-3ε-pLuc were seeded into a 384-well white plate (Becton Dickinson, Franklin Lakes, NJ, USA) at 20 000 cells per well with 30 μl of regular medium. Cells were cultured overnight. The following day, the culture medium was replaced with 15 μl of serum-free DMEM, followed by the addition of 5 μl of compounds/drugs. Agonists were added as serial dilutions in serum-free DMEM from 10 mM dimethylsulfoxide stocks. For antagonist inhibition assays, the medium was replaced with 10 μl of serum-free DMEM. […] The luminescence signals were determined using a luminescence plate reader (EnSpire or TopCount). Alternatively, after compound incubation, the culture medium was replaced with 10 μl of luciferase detection reagent, and luminescence signals were recorded. […]

For assay [4], the target named is T3, Alpha adrenergic receptor 1A (α1AR) (Homo sapiens, UniProt P35348).
T3 construct: Full-length complementary DNAs of human GPCRs without stop codons were subcloned in frame with the tobacco etch virus (TEV) protease vector; expressed in transfected cells
T3 sequence (P35348 1-466): T1 sequence (P35348 1-466)
The assay is described as follows: α1AR/14-3-3ε LinkLight assay (agonist-induced GPCR-mediated 14-3-3 signaling). It counts as cell-based. The protocol: as §1, §2

For assay [5], the target named is T2, muscarinic cholinergic receptor 5 (CHRM5). In words: CHRM5/14-3-3ε LinkLight assay, antagonist mode. The format is cell-based. Conditions: preincubation with antagonist, then 3 μM carbachol; Figure 2f.
Text: as §3, §4

The target in assay [6] is T4, β3 adrenergic receptor (ADRB3) (Homo sapiens, UniProt P13945).
T4 construct: Full-length complementary DNAs of human GPCRs without stop codons were subcloned in frame with the tobacco etch virus (TEV) protease vector; expressed in transfected cells
T4 sequence (P13945 whole entry): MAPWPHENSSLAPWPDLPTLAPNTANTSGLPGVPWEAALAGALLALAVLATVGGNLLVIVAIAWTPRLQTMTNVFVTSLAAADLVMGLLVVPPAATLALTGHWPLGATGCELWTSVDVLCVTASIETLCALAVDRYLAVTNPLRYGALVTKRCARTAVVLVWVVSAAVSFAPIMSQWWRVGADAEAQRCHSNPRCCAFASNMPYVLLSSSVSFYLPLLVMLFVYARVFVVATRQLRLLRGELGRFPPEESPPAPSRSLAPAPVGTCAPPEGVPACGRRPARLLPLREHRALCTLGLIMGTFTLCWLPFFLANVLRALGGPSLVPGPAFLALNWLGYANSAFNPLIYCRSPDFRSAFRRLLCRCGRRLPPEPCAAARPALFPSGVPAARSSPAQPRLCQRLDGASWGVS
The assay is described as follows: ADRB3/14-3-3 LinkLight assay. The format is cell-based. Conditions: HEK293 stably expressing ADRB3-TEV and 14-3-3-pLuc; Figure 3d. The protocol: as §1, §2

Setting [7] is: α1A-TEV/14-3-3ε-pLuc cells, adrenergic agonist panel, Figure 3e, read-out: potency (rank order) in the 14-3-3 signaling assay.

For `C[C@H](Cc1ccc(OCC(=O)O)cc1)NC[C@H](O)c1cccc(Cl)c1` [BRL37344], in assay [1], the “agonist behaviour in β-arrestin signaling versus 14-3-3 signaling” value is “much weaker agonists of β-arrestin signaling than of 14-3-3 signaling”. For `Cn1c(CNc2cccc(C(=O)NCc3ccccc3C(F)(F)F)c2)nnc1-c1ccncc1` [CMPD101], the “inhibition of cirazoline-stimulated α1AR/14-3-3 signals” value with α1AR/14-3-3 interaction was “did not inhibit”.

As to `O=C1Nc2ccc(I)cc2/C1=C/c1cc(Br)c(O)c(Br)c1` [GW5074], the “inhibition of FBS-stimulated Raf-1/14-3-3 interaction signals” value in the assay with Raf-1/14-3-3 interaction is reported as “very weak inhibition activity”. In the case of `O=S(=O)(NCCNC/C=C/c1ccc(Br)cc1)c1cccc2cnccc12` [H-89], the “inhibition of cirazoline-stimulated α1AR/14-3-3 signals” value in the assay with α1AR/14-3-3 interaction is given as “did not inhibit”. In the case of `CCNC(=O)[C@H]1O[C@@H](n2cnc3c(N)ncnc32)[C@H](O)[C@@H]1O` [NECA, 5'-N-ethylcarboxamidoadenosine], the “Raf-1/14-3-3 interaction signals on stimulation with GPCR agonist” value in assay [2] is listed as “concentration-dependent Raf-1/14-3-3 interaction signals”. For `O=C1CCCN1CC#CCN1CCCC1` [Oxotremorine, oxotremorine], the “agonist behaviour for 14-3-3 signaling (full/partial)” value in assay [3] was “full agonists”. Take `Brc1c(NC2=NCCN2)ccc2nccnc12` [UK14304]: the EC50 in assay [4] (setting [7]) was 55.2 nM; in assay [1], 780 nM.

With `CNC[C@H](O)c1ccc(O)c(O)c1` [adrenaline], in assay [2], the “Raf-1/14-3-3 interaction signals on stimulation with GPCR agonist” value was “concentration-dependent Raf-1/14-3-3 interaction signals”. In the case of `CN1[C@@H]2CC[C@H]1C[C@@H](OC(=O)C(CO)c1ccccc1)C2` (stereo partly shown) [atropine], the “inhibition of agonist-induced CHRM5-mediated 14-3-3 signals” value in assay [5] is recorded as “antagonist concentration-dependent inhibition signals”. Consider `C[N+](C)(C)CCOC(N)=O` [carbachol], for which the “agonist behaviour for 14-3-3 signaling (full/partial)” value in assay [3] is “full agonists”. In the case of `c1ccc(C2CC2)c(OCC2=NCCN2)c1` [cirazoline], the EC50 is 9.5 nM in assay [4] (HEK293 stably co-expressing α1A-TEV/14-3-3ε-pLuc, Figure 2a, read-out: EC50, α1AR-mediated 14-3-3 signaling); 1.72 nM in assay [4] (setting [7]); 18.4 nM in assay [1]. For the same molecule, the ADRB3/14-3-3 interaction signals entry in assay [6] is “very weak signals even at 10 μM”.

As to `NCCc1ccc(O)c(O)c1` [dopamine], in assay [2], the “Raf-1/14-3-3 interaction signals on stimulation with GPCR agonist” value is “concentration-dependent Raf-1/14-3-3 interaction signals”.

With `N=C(N)NC(=O)Cc1c(Cl)cccc1Cl` [guanfacine], the EC50 in assay [4] (setting [7]) was found to be 12.4 nM; in assay [1], 1610 nM. Moreover, the ADRB3/14-3-3 interaction signals entry in assay [6] is reported as “very weak signals even at 10 μM”. As for `CC(C)NCC(O)c1ccc(O)c(O)c1` (stereo not shown) [isoproterenol], the “agonist behaviour in β-arrestin signaling versus 14-3-3 signaling” value in assay [1] is “much weaker agonists of β-arrestin signaling than of 14-3-3 signaling”. Also, in assay [6], the ADRB3/14-3-3 interaction signals result is given as “promoted ADRB3/14-3-3 interaction signals in a concentration-dependent manner”.

Consider `COc1ccc(OC)c(C(O)C(C)N)c1` (stereo not shown) [methoxamine], for which the EC50 amounted to 11.1 nM in assay [4] (setting [7]) and 318 nM in assay [1]. Take `CN1[C@@H]2C[C@@H](OC(=O)[C@H](CO)c3ccccc3)C[C@H]1[C@@H]1O[C@@H]12` [scopolamine]: the “inhibition of agonist-induced CHRM5-mediated 14-3-3 signals” value in assay [5] is on record as “antagonist concentration-dependent inhibition signals”. For the molecule `CCCS(=O)(=O)Nc1ccc(F)c(C(=O)c2c[nH]c3ncc(-c4ccc(Cl)cc4)cc23)c1F` [vemurafenib], the “inhibition of FBS-stimulated Raf-1/14-3-3 interaction signals” value in the assay with Raf-1/14-3-3 interaction was “partial inhibition”.
